Values of other authors, collected in patent US11534589B2, “Iontophoretic microneedle device” (LTS LOHMANN THERAPIE-SYSTEME AG, priority 2017, dated 2022).
Where two headings read alike, the source gives them in different places.

Experiments:
[1] = maltose microneedles combined with iontophoresis, hairless rats

Increase in delivery [1] [fold]	Bioavailability (nasal spray) [%]	Bioavailability (oral tablet)	SMILES
25			CN(Cc1cnc2nc(N)nc(N)c2n1)c1ccc(C(=O)N[C@@H](CCC(=O)O)C(=O)O)cc1 [methotrexate]
	≤ 14	not more than 15%	CNS(=O)(=O)Cc1ccc2[nH]cc(CCN(C)C)c2c1.O=C(O)CCC(=O)O [sumatriptan, 3-[2-(dimethylamino)ethyl]-N-methyl-indole-5-methane-sulfonamide succinate (1:1)]
